Values quoted from earlier work as cited in patent US20190374622A1, “COMPOSITION AND METHOD FOR CO-ADMINISTRATION WITH A GROWTH PROMOTANT” (OmniGen Research, LLC, priority 2014, published 2019).
Structures can show the parent of a compound that is named as a salt. Where two headings read alike, the source gives them in different places.

Key:
[1] = cattle, cited from earlier work
[2] = finishing swine; cited from earlier work
[3] = cited from earlier work; for increase in average daily weight gain: last 2 weeks
[4] = cited from earlier work
[5] = 300 mg per head per day, vs cattle that did not receive it

| SMILES | increase in hot carcass weight [1, 5] | increase in live weight [1, 5] | carcass leanness and yield grade [1] | carcass quality, as measured by marbling score and quality grade [1] | better feed efficiency [2] | fat-free lean gain [2] | increase in average daily gain [2] | increase in carcass weights [2] | meat quality [2] | increase in average daily weight gain ([3]; hens) | increase in average daily weight gain ([3]; toms) | meat quality, including pH, color and tenderness ([3]; turkeys) | improvement of feed efficiency ([4]; cattle, administered as Zilmax, one study (Intervet/Schering Plough 2010)) | number of Yield Grade 4 and 5 cattle [4] | percentage of Yield Grade 1 cattle [4] |
| --- | --- | --- | --- | --- | --- | --- | --- | --- | --- | --- | --- | --- | --- | --- | --- |
| CC(CCc1ccc(O)cc1)NCC(O)c1ccc(O)cc1 (racemic) [Ractopamine hydrochloride, 4-[3-[[2-hydroxy-2-(4-hydroxyphenyl)ethyl]amino]butyl]phenol] | 20 pounds | 22 pounds | improves | no effect | 10% | improve | 10% | 5 pounds | not affecting | 19% | 13% | no effect |  |  |  |
| CC(C)NC1CCn2c(=O)[nH]c3cccc(c32)C1O (stereo not drawn) [Zilpaterol hydrochloride, 4,5,6,7-tetrahydro-7-hydroxy-6-(isopropylamino)imidazo[4,5,1-jk][1]benzazepin-2(1H)-one] |  |  |  |  |  |  |  |  |  |  |  |  | 3% | cut | increase |
